Test system: gene expression in D04 melanoma cells
Assay: RNA-Seq differential expression analysis (DESeq2)
Format: cell-based, human
Procedure: Total RNA was isolated using the RNeasy mini Kit (QIAGEN) following the manufacturer's protocol. Quality check for extracted RNA was done using 2100 Bioanalyzer (Agilent Technologies, USA) or Tapestation System (Agilent Technologies, USA). […] For samples used for identification of MAPK-responsive lncRNAs, paired-end, 101-bp sequencing was performed by Centrillion Genomic Services (Centrillion Biosciences, USA) on an Illumina HiSeq 2000. For DE gene analysis of ASO-transfected D04 samples, paired-end, 2×150-bp sequencing was performed by Genewiz (USA) on a Illumina HiSeq.
Sequence reads were aligned to the human genome (hg19) using TopHat (Version 2.0.11).
Differential expression (DE) analysis was done using DESeq2. Differentially expressed genes were defined by more than 1.5-fold changes (log 2 >0.58 or <−0.58) in expression with FDR<0.05. GO term analysis was done using DAVID Functional Annotation Clustering analysis.
To examine the biomolecular changes upon TRASH-inhibition in melanoma, D04 cells were treated with TRASH-ASOs (SEQ ID NO:15) and Control-ASOs and RNA was extracted and used for RNA-Seq. […] These GO terms consisted of genes encoding growth factors, tyrosine kinases, G protein coupled receptor subunits, and collagen subunits. Scatter plot diagram showing differential gene expression after TRASH-ASO treatment compared to Control-ASO treatment. (cut-off for significance was adjusted p-value <0.05). Data was obtained from RNA-Seq of D04 melanoma cells, treatment period was three days. (FIG. 5c)

GACTGGAGATAATTAA (gapmer, pattern not given here) [SEQ ID NO: 15, GapmeR ASO targeting AC004540.4 (TRASH), exon region of both isoforms; used for in vitro experiments]
log2FoldChange AC010327.3 (ENSG00000267577, up-regulated list): 1.04
log2FoldChange CARD8-AS1 (ENSG00000268001, up-regulated list): 0.7573
log2FoldChange AC005261.3 (ENSG00000268713, up-regulated list): 0.7391
log2FoldChange AL513477.1 (ENSG00000269896, up-regulated list): 1.066
log2FoldChange AL606834.1 (ENSG00000269906, up-regulated list): 0.6043
log2FoldChange ZNF559-ZNF177 (ENSG00000270011, up-regulated list): 0.8965
log2FoldChange AC112220.2 (ENSG00000271020, up-regulated list): 0.8814
log2FoldChange AC112220.4 (ENSG00000271643, up-regulated list): 0.8013
log2FoldChange AC004890.3 (ENSG00000271664, up-regulated list): 0.9879
log2FoldChange AL365181.3 (ENSG00000272405, up-regulated list): 1.112
log2FoldChange AL365203.2 (ENSG00000273038, up-regulated list): 0.6423
log2FoldChange AC037198.1 (ENSG00000276107, up-regulated list): 0.6896
log2FoldChange AC245041.2 (ENSG00000276850, up-regulated list): 1.06
log2FoldChange ENSG00000279184 (Gene.name NA) (ENSG00000279184, up-regulated list): 0.592
log2FoldChange AC005261.5 (ENSG00000279541, up-regulated list): 0.6302
log2FoldChange AC104581.4 (ENSG00000280046, up-regulated list): 0.8564
log2FoldChange UCKL1-AS1 (ENSG00000280213, up-regulated list): 0.6201
log2FoldChange LINC01173 (ENSG00000280744, up-regulated list): 0.9254
log2FoldChange AC139493.2 (ENSG00000283235, up-regulated list): 0.8882
log2FoldChange (EPHA3 (ENSG00000044524)): −0.647
log2FoldChange (ETS2 (ENSG00000157557)): 1.279
log2FoldChange (EVI2A (ENSG00000126860)): 1.514
log2FoldChange (EXOC3L2 (ENSG00000283632)): −0.6947
log2FoldChange (FAM129A (ENSG00000135842)): −0.6591
log2FoldChange (FAM172BP (ENSG00000175841)): 2.273
log2FoldChange (FAM180A (ENSG00000189320)): 2.047
log2FoldChange (FAM198B-AS1 (ENSG00000248429)): −0.6307
log2FoldChange (FBXO2 (ENSG00000116661)): −0.638
log2FoldChange (FBXO9 (ENSG00000112146)): −0.5825
log2FoldChange (FBXO40 (ENSG00000163833)): 1.589
log2FoldChange (FGF1 (ENSG00000113578)): −0.5817
log2FoldChange (FHDC1 (ENSG00000137460)): −0.7072
log2FoldChange (FOSB (ENSG00000125740)): 2.191
log2FoldChange (FRK (ENSG00000111816)): −0.6911
log2FoldChange (FRRS1 (ENSG00000156869)): −0.5906
log2FoldChange (FYN (ENSG00000010810)): −0.6273
log2FoldChange (GABRA3 (ENSG00000011677)): −0.5841
log2FoldChange (GAPDHP33 (ENSG00000240244)): 1.514
log2FoldChange (GAREM1 (ENSG00000141441)): −0.6261
log2FoldChange (GAS1 (ENSG00000180447)): −0.6542
log2FoldChange (GAS7 (ENSG00000007237)): −0.5864
log2FoldChange (GGT5 (ENSG00000099998)): −0.6741
log2FoldChange (GNG2 (ENSG00000186469)): −0.6003
log2FoldChange (GNGT2 (ENSG00000167083)): 1.241
log2FoldChange (GPR162 (ENSG00000250510)): −0.5935
log2FoldChange (GPRIN3 (ENSG00000185477)): −0.66
log2FoldChange (GSG1 (ENSG00000111305)): 2.332
log2FoldChange (H2BFWT (ENSG00000123569)): 2.336
log2FoldChange (HDAC2-AS2 (ENSG00000228624)): 1.256
log2FoldChange (HDAC4 (ENSG00000068024)): −0.5923
log2FoldChange (HEY1 (ENSG00000164683)): −0.6645
log2FoldChange (HHIPL2 (ENSG00000143512)): −0.6841
log2FoldChange (HID1 (ENSG00000167861)): 1.325
log2FoldChange (HLA-DMA (ENSG00000204257)): −0.582
log2FoldChange (HLA-DMB (ENSG00000242574)): −0.6646
log2FoldChange (HLA-DPB1 (ENSG00000223865)): −0.696
log2FoldChange (HLA-DRA (ENSG00000204287)): −0.641
log2FoldChange (HLA-V (ENSG00000181126)): 1.398
log2FoldChange (HS6ST2 (ENSG00000171004)): −0.588
log2FoldChange (HSD3B1 (ENSG00000203857)): −0.6356
log2FoldChange (HSPA2 (ENSG00000126803)): −0.6741
log2FoldChange (IFI27 (ENSG00000165949)): −0.6194
log2FoldChange (IFI27L1 (ENSG00000165948)): −0.5945
log2FoldChange (IGFBP5 (ENSG00000115461)): −0.631
log2FoldChange (IGSF11 (ENSG00000144847)): −0.5994
log2FoldChange (IL24 (ENSG00000162892)): 2.412
log2FoldChange (IMMP2L (ENSG00000184903)): −0.6662
log2FoldChange (ITGB2 (ENSG00000160255)): 1.646
log2FoldChange (KCNK1 (ENSG00000135750)): 4.668
log2FoldChange (KCNQ5 (ENSG00000185760)): −0.6919
log2FoldChange (KIAA0319L (ENSG00000142687)): −0.5992
log2FoldChange (KIF1A (ENSG00000130294)): 6.604
log2FoldChange (KIRREL1 (ENSG00000183853)): −0.6846
log2FoldChange (KISS1 (ENSG00000170498)): 1.679
log2FoldChange (KITLG (ENSG00000049130)): −0.5925
log2FoldChange (KLK2 (ENSG00000167751)): 2.321
log2FoldChange (KRT15 (ENSG00000171346)): 1.605
log2FoldChange (KRT34 (ENSG00000131737)): 3.32
log2FoldChange (KRT73-AS1 (ENSG00000257495)): 2.888
log2FoldChange (KRT75 (ENSG00000170454)): 1.915
log2FoldChange (LBH (ENSG00000213626)): −0.6972
log2FoldChange (LCK (ENSG00000182866)): 1.307
log2FoldChange (LCN2 (ENSG00000148346)): 1.647
log2FoldChange (LDHD (ENSG00000166816)): 1.623
log2FoldChange (LDLR (ENSG00000130164)): −0.588
log2FoldChange (LIFR (ENSG00000113594)): −0.5862
log2FoldChange (LINC00520 (ENSG00000258791)): 2.38
